Data: US20240181068A1, “SELECTIVE NEUTRAL PH INHIBITOR OF CATHEPSIN B” (The Regents of the University of California, priority 2021, published 2024)

Experiments:
[1] = biological target: T1, cathepsin H (Homo sapiens, UniProt P09668); experiment: Specificity of inhibitors: cathepsin H (Arg-AMC substrate); type: biochemical
T1 construct: purchased R&D Systems 75116-CY-010
Description: (§1) Specificity of inhibitors for other cysteine cathepsin proteases. The effects of Z-Arg-Lys-AOMK and Z-Glu-Lys-AOMK on cathepsin V, L, K, S, X, H and C activities were assessed. IC50 values were calculated at pH 4.6 and pH 7.2 conditions, consisting of 40 mM citrate phosphate, 1 mM EDTA, 100 mM NaCl, and 5 mM DTT. The inhibitor concentrations ranged from 16.38 μM to 256 nM with 2-fold serial dilutions. […] Cathepsin V (0.04 ng/μL), cathepsin L (0.03 ng/μL), cathepsin K (0.10 ng/μL), cathepsin S (0.20 ng/uL) were assayed with 40 μM Z-Phe-Arg-AMC. Cathepsin X (0.20 ng/uL), cathepsin C (0.51 ng/uL) and cathepsin H (0.1 ng/μL) were assayed with 40 μM of MCA-Arg-Pro-Pro-Gly-Phe-Ser-Ala-Phe-Lys(Dnp)OH (SEQ ID NO: 2), Gly-Arg-AMC, and Arg-AMC, respectively. Activation of pro-cathepsin H to cathepsin H was conducted by incubation of cathepsin H (4.4 ng/μL) with cathepsin L (1.1 ng/μL) at RT for 2 hrs in activation buffer (20 mM citrate phosphate pH 6.0, 100 mM NaCl, and 5 mM DTT). Cathepsin C (13.78 ng/μL) was activated by incubation with cathepsin L (3.4 ng/μL) at RT for one hr in activation buffer (20 mM citrate phosphate, pH 6.0, 100 mM NaCl, 5 mM DTT). […] For all assays containing peptide-AMC substrates the fluorescent microplate reader settings were the same as outlined above for cathepsin B. For the cathepsin X assay, the plate reader was set to excitation 320 nm, emission 400 nm, gain 105, top optics and read height 1 mm. To convert RFU/s to picomol/min, 10 μM to 0.005 μM (2-fold serial dilution) of MCA-Arg-Pro-Pro-Gly-Phe-Ser-Ala-Phe-Lys(Dnp)OH (SEQ ID NO: 2) was fully hydrolyzed with excess cathepsin X and a standard curve was generated using the total fluorescence values calculated at each concentration.

[2] = biological target: T2, cathepsin V (Homo sapiens, UniProt O60911); experiment: Specificity of inhibitors: cathepsin V (Z-Phe-Arg-AMC substrate); type: biochemical
T2 construct: purchased R&D Systems 1080-CY-010
T2 sequence (O60911 114-334): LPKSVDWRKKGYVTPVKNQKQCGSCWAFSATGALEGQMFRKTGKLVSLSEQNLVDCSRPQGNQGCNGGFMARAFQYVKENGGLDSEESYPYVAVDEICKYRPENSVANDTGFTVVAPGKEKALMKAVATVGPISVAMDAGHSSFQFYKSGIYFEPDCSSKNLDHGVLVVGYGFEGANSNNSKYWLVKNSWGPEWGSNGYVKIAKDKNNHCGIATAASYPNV
Description: as §1

[3] = biological target: T3, cathepsin S (Homo sapiens, UniProt P25774); experiment: Specificity of inhibitors: cathepsin S (Z-Phe-Arg-AMC substrate); type: biochemical
T3 construct: purchased R&D Systems 1183-CY-010
T3 sequence (P25774 115-331): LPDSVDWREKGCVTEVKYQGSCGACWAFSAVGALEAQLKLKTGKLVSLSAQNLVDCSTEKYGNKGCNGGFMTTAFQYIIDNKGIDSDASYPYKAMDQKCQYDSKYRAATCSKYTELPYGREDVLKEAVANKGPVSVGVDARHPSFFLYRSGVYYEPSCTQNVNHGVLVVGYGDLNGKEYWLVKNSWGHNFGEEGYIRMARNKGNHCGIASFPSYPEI
Description: as §1

[4] = biological target: T4, cathepsin B (Homo sapiens, UniProt P07858); experiment: Irreversible mechanism of inhibitors (pre-incubation, dilution, activity); type: biochemical; conditions: pH 7.2
T4 construct: purchased R&D Systems 953-CY-010
Description: Irreversible mechanism of inhibitors. The irreversible or reversible mechanism of cathepsin B inhibition was assessed for Z-Arg-Lys-AOMK and Z-Glu-Lys-AOMK inhibitors. At pH 7.2, cathepsin B was incubated with 190 nM Z-Arg-Lys-AOMK and 4.99 μM Z-Glu-Lys-AOMK for 15 min in pH 7.2 assay buffer and the assay was performed as described above for pH 4.6. Proteolytic activity was monitored for 2 hr. At pH 4.6, cathepsin B (activated, 3.7 ng/μL) was incubated with 4.24 μM Z-Arg-Lys-AOMK and 3.48 μM Z-Glu-Lys-AOMK for 15 min in 40 mM citrate phosphate pH 4.6, 1 mM EDTA, 100 mM NaCl, and 5 mM DTT; a vehicle control contained 2.5% DMSO. Each reaction was then diluted 100-fold in assay buffer such that the final assay composition was 0.04 ng/μL cathepsin B, 40 μM Z-Phe-Arg-AMC, and an inhibitor concentration of 1/10th the IC50 value.

[5] = biological target: T5, cathepsin B in human neuroblastoma cells (SHSY5Y) (Homo sapiens, UniProt P07858); experiment: Neuroblastoma cells incubated with inhibitors, then cathepsin B assay; type: cell-based
T5 construct: endogenous in cells; host or cells: SH-SY5Y human neuroblastoma cells
Description: Cathepsin B in human neuroblastoma cells treated with inhibitors. Neuroblastoma cells (human SHSY5Y) were grown in media consisting of 50% MEMalpha, 50% F12-K, 10% heat-inactivated FBS at 37° C. in an atmosphere of 95% air and 5% CO2. Firstly, cell homogenates were prepared by collection of cells in 0.32 M sucrose and freeze-thawing. Secondly, cells were incubated with Z-Arg-Lys-AOMK or CA-074Me for 6 hours at 37° C., and washed 3 times in phosphate-buffered saline and homogenates were prepared in 0.32 M sucrose with freeze-thawing. CA-074Me is a methyl ester form of the active CA-074 selective inhibitor of cathepsin B (70); CA-074Me penetrates the cell and is converted by intracellular esterases to CA-074.
Cathepsin B activity in the homogenates were monitored with Z-Arg-Arg-AMC substrate (60 μM) with buffer conditions of 40 mM citrate-phosphate, pH 5.5, 5 mM DTT, 1 mM EDTA, 100 mM NaCl, and 1.2% DMSO, followed by incubation at 37° C. for 30 minutes and reading of AMC fluorescence. CA-074-senstive activity was monitored to indicate cathepsin B activity, since CA-074 is a selective inhibitor of this enzyme (70). Protein content was measured in homogenates with the DC protein assay kit. Cathepsin B specific activity was calculated as nmol AMC/μg/min, and reported as the mean±SD (with analyses for statistical significance, p<0.05 by student's t-test).

[6] = biological target: T6, cathepsin C (Homo sapiens, UniProt P53634); experiment: Specificity of inhibitors: cathepsin C (Gly-Arg-AMC substrate); type: biochemical
T6 construct: purchased R&D Systems 1071-CY-010
T6 sequence (P53634 25-134 limits assumed): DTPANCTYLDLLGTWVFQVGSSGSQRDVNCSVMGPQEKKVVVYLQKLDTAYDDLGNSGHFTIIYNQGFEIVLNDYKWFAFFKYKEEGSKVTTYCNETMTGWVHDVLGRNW
T6 sequence (P53634 231-394 limits assumed): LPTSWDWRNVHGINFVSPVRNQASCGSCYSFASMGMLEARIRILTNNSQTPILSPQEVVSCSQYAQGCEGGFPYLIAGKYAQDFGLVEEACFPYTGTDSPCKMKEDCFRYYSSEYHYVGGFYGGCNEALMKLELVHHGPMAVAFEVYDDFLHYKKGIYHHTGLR
T6 sequence (P53634 395-463 limits assumed): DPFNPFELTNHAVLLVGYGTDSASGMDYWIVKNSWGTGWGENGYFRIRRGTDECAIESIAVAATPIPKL
Description: as §1

T1 sequence (P09668 116-335 limits assumed, other chains not shown): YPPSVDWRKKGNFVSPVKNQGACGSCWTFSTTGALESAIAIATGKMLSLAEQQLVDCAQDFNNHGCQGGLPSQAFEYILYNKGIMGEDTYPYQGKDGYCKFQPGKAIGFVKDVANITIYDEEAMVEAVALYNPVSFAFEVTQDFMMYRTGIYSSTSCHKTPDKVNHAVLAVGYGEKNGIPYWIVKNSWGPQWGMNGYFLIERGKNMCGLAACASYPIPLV

IC50 ([1]; cathepsin H, pH 4.6): > 16 µM | IC50 ([1]; cathepsin H, pH 7.2): > 16 µM | inhibition at 16 µM ([1]; cathepsin H, pH 7.2, 16,000 nM inhibitor): 29% | inhibition of cathepsin H ([1]; pH 4.6, inhibitor at 16 μM): no inhibition | inhibition of cathepsin H ([1]; pH 7.2, inhibitor at 16 μM): minimally inhibited | IC50 ([2]; cathepsin V, pH 4.6): > 16 µM | inhibition at 16 µM ([2]; cathepsin V, pH 4.6, 16,000 nM inhibitor): 63% | IC50 ([2]; cathepsin V, pH 7.2): 0.44 µM | inhibition of cathepsin V ([2]; pH 4.6, inhibitor at 16 μM): minimal inhibition | fold more potent for cathepsin B than cathepsin V ([2]; pH 7.2, from IC50): 22 fold | IC50 ([3]; cathepsin S, pH 4.6): > 16 µM | inhibition at 16 µM ([3]; cathepsin S, pH 4.6, 16,000 nM inhibitor): 13% | inhibition of cathepsin S ([3]; pH 4.6, inhibitor at 16 μM): minimal inhibition | fold more potent for cathepsin B than cathepsin S ([3]; pH 7.2, from IC50): 110 fold | cathepsin B activity after pre-incubation and dilution of inhibitor [4]: no cathepsin B activity | inhibition of cellular cathepsin B activity ([5]; cells incubated with 50 μM inhibitor for 6 hrs, washed, homogenate assayed with Z-Arg-Arg-AMC): completely inhibited | cell permeability ([5]; neuroblastoma cells, 50 μM, 6 hrs): cell permeable | IC50 ([6]; cathepsin C, pH 4.6): > 16 µM | inhibition at 16 µM ([6]; cathepsin C, pH 4.6, 16,000 nM inhibitor): 6% | IC50 ([6]; cathepsin C, pH 7.2): 0.85 µM | inhibition of cathepsin C ([6]; pH 4.6, inhibitor at 16 μM): minimal inhibition | fold more potent for cathepsin B than cathepsin C ([6]; pH 7.2, from IC50): 43 fold
Structure (SMILES): Cc1cccc(C)c1C(=O)OCC(=O)C(CCCCN)NC(=O)C(CCCNC(=N)N)NC(=O)OCc1ccccc1 (stereo not drawn) [Z-Arg-Lys-AOMK]
